Results taken from ChEMBL document CHEMBL4219141, “Identification of an aminothiazole series of RORβ modulators” (Bioorg Med Chem Lett, 2018).
The source made the active and inactive calls. No cut-off for these calls is given here.

Tests used:
[1] = Half life in mouse liver microsomes at 1 uM in presence of NADPH by LC-MS/MS analysis; format: ADME, microsome
[2] = biological target: T1, Nuclear receptor ROR-gamma (Homo sapiens, UniProt P51449)
T1 sequence (P51449 whole entry): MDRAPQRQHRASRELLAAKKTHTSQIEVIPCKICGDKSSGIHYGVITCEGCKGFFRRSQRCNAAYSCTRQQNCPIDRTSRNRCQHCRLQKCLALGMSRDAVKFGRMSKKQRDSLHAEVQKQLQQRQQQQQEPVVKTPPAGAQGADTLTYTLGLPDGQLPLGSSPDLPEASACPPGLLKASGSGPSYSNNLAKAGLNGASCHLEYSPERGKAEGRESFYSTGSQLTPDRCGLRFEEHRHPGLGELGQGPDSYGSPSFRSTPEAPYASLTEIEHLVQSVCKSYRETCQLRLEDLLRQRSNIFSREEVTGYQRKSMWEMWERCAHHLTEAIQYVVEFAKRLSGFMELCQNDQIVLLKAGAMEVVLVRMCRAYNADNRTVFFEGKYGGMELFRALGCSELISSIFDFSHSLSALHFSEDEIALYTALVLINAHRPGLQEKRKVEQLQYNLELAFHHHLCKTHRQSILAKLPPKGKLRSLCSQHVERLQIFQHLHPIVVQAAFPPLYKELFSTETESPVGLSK

[3] = biological target: T2, Nuclear receptor ROR-alpha (Homo sapiens) (UniProt P35398); test: Inverse agonist activity at GAL4-DNA binding domain-fused human RORalpha ligand binding domain expressed in HEK293T cells incubated for 20 hrs by luciferase reporter gene assay; format: cell-based
T2 sequence (whole entry): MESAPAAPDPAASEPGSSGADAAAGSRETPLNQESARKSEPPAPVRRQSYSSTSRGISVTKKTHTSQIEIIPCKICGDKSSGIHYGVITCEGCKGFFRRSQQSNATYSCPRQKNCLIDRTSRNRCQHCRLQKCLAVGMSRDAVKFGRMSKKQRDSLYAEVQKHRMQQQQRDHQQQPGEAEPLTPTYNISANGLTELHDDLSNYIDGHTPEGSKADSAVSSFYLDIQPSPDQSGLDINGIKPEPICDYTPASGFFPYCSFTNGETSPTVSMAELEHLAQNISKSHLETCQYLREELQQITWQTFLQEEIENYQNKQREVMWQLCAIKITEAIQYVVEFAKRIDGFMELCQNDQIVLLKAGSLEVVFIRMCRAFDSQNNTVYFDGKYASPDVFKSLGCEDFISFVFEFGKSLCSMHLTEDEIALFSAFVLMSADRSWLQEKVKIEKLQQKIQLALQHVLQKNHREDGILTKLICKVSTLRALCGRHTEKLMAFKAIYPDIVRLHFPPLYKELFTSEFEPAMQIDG

HEK-293T = test: Toxicity in HEK293T cells at 10 uM; format: cell-based; settings: human

COc1ccccc1C(=O)c1sc(N)nc1-c1cc(C(F)(F)F)cc(C(F)(F)F)c1
t1/2 [1]: 5.2 min

Nc1nc(-c2cccc(C(F)(F)F)c2)c(C(=O)c2ccccc2C(F)(F)F)s1
IC50 [2]: > 40 µM

Nc1nc(-c2ccc(Br)c(C(F)(F)F)c2)c(C(=O)c2ccccc2Cl)s1
t1/2 [1]: 2.5 min

COc1ccccc1C(=O)c1sc(N)nc1-c1ccc(Cl)c(C(F)(F)F)c1
Activity [3]: inactive | Activity (HEK-293T): Non-Toxic | IC50 [2]: > 40 µM

COc1ccccc1C(=O)c1sc(N)nc1-c1cc(Br)cc(C(F)(F)F)c1
Activity [3]: inactive | Activity (HEK-293T): Non-Toxic | t1/2 [1]: 2.3 min

Nc1nc(-c2ccc(Cl)c(C(F)(F)F)c2)c(C(=O)c2ccccc2Cl)s1
IC50 [2]: > 40 µM

Nc1nc(-c2cc(Br)cc(C(F)(F)F)c2)c(C(=O)c2ccccc2Cl)s1
Activity [3]: inactive | Activity (HEK-293T): Non-Toxic | IC50 [2]: > 40 µM | t1/2 [1]: 5.2 min

Nc1nc(-c2cc(C(F)(F)F)cc(C(F)(F)F)c2)c(C(=O)c2ccccc2Cl)s1
t1/2 [1]: 7.4 min

Nc1nc(-c2cc(Cl)cc(C(F)(F)F)c2)c(C(=O)c2ccccc2Cl)s1
t1/2 [1]: 6.1 min

Nc1nc(-c2cccc(C(F)(F)F)c2)c(C(=O)c2ccccc2Br)s1
IC50 [2]: > 40 µM

Nc1nc(-c2cccc(Cl)c2)c(C(=O)c2ccccc2Cl)s1
Activity [3]: inactive | Activity (HEK-293T): Non-Toxic | t1/2 [1]: 1.9 min

Nc1nc(-c2cccc(C(F)(F)F)c2)c(C(=O)c2c(F)cccc2C(F)(F)F)s1
IC50 [2]: > 40 µM

Nc1nc(-c2cccc(C(F)(F)F)c2)c(C(=O)c2ccccc2Cl)s1
t1/2 [1]: 2.9 min

Nc1nc(-c2cccc(C(F)(F)F)c2)c(C(=O)c2c(F)cccc2Cl)s1
IC50 [2]: > 40 µM | t1/2 [1]: 2.7 min

COc1ccccc1C(=O)c1sc(N)nc1-c1cccc(C(F)(F)F)c1
IC50 [2]: > 40 µM

CCS(=O)(=O)c1ccc(CC(=O)Nc2nc(-c3ccccc3Cl)c(C(=O)c3ccccc3Cl)s2)cc1
Activity (HEK-293T): Non-Toxic | t1/2 [1]: 34 min
